Earlier results as cited in patent US5243035A, “Sialic acid-containing glycolipid derivatives” (Drug Delivery System Institute, Ltd., priority 1990, dated 1993).

Conditions: incorporated into liposome membrane; literature report

ganglioside GM1
resistance of liposome to capture by the reticuloendothelial system: increased resistance to capture by the reticuloendothelial system
